From ChEMBL document CHEMBL5131501, “Discovery and evaluation of chalcone derivatives as novel potential anti-Toxoplasma gondii agents” (Eur J Med Chem, 2022)
Activity calls are given as the source filed them. The rule behind the calls is not given here.

What follows are compounds tested on Toxoplasma gondii (assay: Anti-tachyzoite activity against Toxoplasma gondii RH infected in kunming mouse model assessed as decrease in malondialdehyde lipid peroxidation in liver at 100 mg/kg, ip administered daily for 4 days after 4 hrs post infection). Conditions: time 4.0 day.
Format: functional, organism-based
With `CO[C@@H]1[C@@H](O[C@@H]2O[C@H](C)[C@@H](O[C@H]3C[C@@](C)(O)[C@@H](O)[C@H](C)O3)[C@H](N(C)C)[C@H]2O)[C@@H](CC=O)C[C@@H](C)[C@@H](O[C@H]2CC[C@H](N(C)C)[C@@H](C)O2)/C=C/C=C/C[C@@H](C)OC(=O)C[C@H]1OC(C)=O` the Activity was “Active”.

What follows are compounds tested on Toxoplasma gondii (assay: Anti-tachyzoite activity against Toxoplasma gondii RH infected in kunming mouse model assessed as decrease in serum AST level at 100 mg/kg, ip administered daily for 4 days after 4 hrs post infection). Conditions: time 4.0 day.
Format: functional, organism-based
`CO[C@@H]1[C@@H](O[C@@H]2O[C@H](C)[C@@H](O[C@H]3C[C@@](C)(O)[C@@H](O)[C@H](C)O3)[C@H](N(C)C)[C@H]2O)[C@@H](CC=O)C[C@@H](C)[C@@H](O[C@H]2CC[C@H](N(C)C)[C@@H](C)O2)/C=C/C=C/C[C@@H](C)OC(=O)C[C@H]1OC(C)=O` was tested, and the Activity was “Active”.

The compounds below were run on Toxoplasma gondii (assay: Anti-tachyzoite activity against Toxoplasma gondii RH infected in Kunming mouse model assessed as inhibition of growth rate in peritoneal fluid at 100 mg/kg, ip administered daily for 4 days after 4 hrs post infection). Conditions: time 4 day.
Format: functional
Parameters: scale not given: the % may be the effect or the level left
In the case of `CO[C@@H]1[C@@H](O[C@@H]2O[C@H](C)[C@@H](O[C@H]3C[C@@](C)(O)[C@@H](O)[C@H](C)O3)[C@H](N(C)C)[C@H]2O)[C@@H](CC=O)C[C@@H](C)[C@@H](O[C@H]2CC[C@H](N(C)C)[C@@H](C)O2)/C=C/C=C/C[C@@H](C)OC(=O)C[C@H]1OC(C)=O`, the Activity was 74.6%.

Each compound was assayed on Toxoplasma gondii (assay: Anti-tachyzoite activity against Toxoplasma gondii RH infected in human HFF cells assessed as mortality rate at 50 uM incubated for 2 hrs by trypan blue staining based light microscopic analysis). Conditions: not given.
Format: functional, organism-based
`CC(C)Nc1ccc(C(=O)/C=C/c2ccc(Cl)c(Cl)c2)cc1` was tested, and the Activity was “Active”. With `Nc1ccc(C(=O)CCc2ccc(Cl)c(Cl)c2)cc1` the Activity was “Active”. For `COc1ccc(C(=O)/C=C/c2ccc(O)cc2)cc1`, the Activity was “Active”. For `O=C(/C=C/c1ccccc1Br)c1cc(F)cc(F)c1`, the Activity was “Active”. With `COc1cccc(CCC(=O)c2cccc(N)c2)c1OC` the Activity was “Active”. In the case of `CC(=O)Nc1ccc(C(=O)/C=C/c2ccccc2Br)cc1`, the Activity was “Active”. `COc1ccc(C(=O)/C=C/c2ccc(O)cc2)cc1OC` was tested, and the Activity was “Active”. In the case of `O=C(/C=C/c1ccccc1Cl)c1cc(F)cc(F)c1`, the Activity was “Active”. With `COc1ccc(C(=O)/C=C/c2ccccc2OC)cc1O` the Activity was “Active”. In the case of `COc1cccc(/C=C/C(=O)c2ccc(NC(C)=O)cc2)c1OC`, the Activity was “Active”. `COc1cccc(/C=C/C(=O)c2cccc(NC(C)C)c2)c1OC` was tested, and the Activity was “Active”. With `O=C(/C=C/c1ccc(Cl)c(Cl)c1)c1cc(F)cc(F)c1` the Activity was “Active”. `CCNc1cccc(C(=O)/C=C/c2cccc(OC)c2OC)c1` was tested, and the Activity was “Active”. In the case of `COc1ccc(C(=O)/C=C/c2ccccc2Cl)cc1O`, the Activity was “Active”. With `CCNc1ccc(C(=O)/C=C/c2ccc(Cl)c(Cl)c2)cc1` the Activity was “Active”. For `CCNc1ccc(C(=O)/C=C/c2ccccc2Br)cc1`, the Activity was “Active”. In the case of `COc1cccc(/C=C/C(=O)c2cccc(NC(C)=O)c2)c1OC`, the Activity was “Active”. With `CC(=O)Nc1ccc(C(=O)/C=C/c2ccc(Cl)c(Cl)c2)cc1` the Activity was “Active”. With `CC(C)Nc1ccc(C(=O)/C=C/c2ccccc2Br)cc1` the Activity was “Active”. For `COc1ccc(C(=O)/C=C/c2ccccc2Cl)cc1`, the Activity was “Active”. With `CCNc1ccc(C(=O)/C=C/c2cccc(OC)c2OC)cc1` the Activity was “Active”. With `COc1cccc(/C=C/C(=O)c2ccc(NC(C)C)cc2)c1OC` the Activity was “Active”. `Nc1ccc(C(=O)CCc2ccccc2Br)cc1` was tested, and the Activity was “Active”. With `COc1cccc(CCC(=O)c2ccc(N)cc2)c1OC` the Activity was “Active”.

What follows are compounds tested on Toxoplasma gondii (assay: Anti-tachyzoite activity against Toxoplasma gondii RH infected in kunming mouse model assessed as decrease in serum ALT level at 100 mg/kg, ip administered daily for 4 days after 4 hrs post infection). Conditions: time 4.0 day.
Format: functional, organism-based
With `CO[C@@H]1[C@@H](O[C@@H]2O[C@H](C)[C@@H](O[C@H]3C[C@@](C)(O)[C@@H](O)[C@H](C)O3)[C@H](N(C)C)[C@H]2O)[C@@H](CC=O)C[C@@H](C)[C@@H](O[C@H]2CC[C@H](N(C)C)[C@@H](C)O2)/C=C/C=C/C[C@@H](C)OC(=O)C[C@H]1OC(C)=O` the Activity was “Active”.
